Patent publication US20160158375A1, “DIPEPTIDE LINKED MEDICINAL AGENTS” (Indiana University Research and Technology Corporation, priority 2010, published 2016)
Where two headings read alike, the source gives them in different places. Square brackets hold non-standard residues; d marks the D form. Peptide text beside a SMILES is read from it. Sar = CNCC(=O)O

Tests used:
[1] = Rate of model dipeptide cleavage in PBS (HPLC / LC-MS); settings: for Relative peak area (%), HPLC peak a / Relative peak area (%), HPLC peak b: PBS, 37° C.; for Relative peak area (%), HPLC peak a: peak a molecular weight 702; for Relative peak area (%), HPLC peak b: peak b molecular weight 902
Experimental: The solution was incubated at 37° C. […] The dipeptide cleavage was quenched by lowering the pH with an equal volume of 0.1% TFA. The rate of cleavage was qualitatively monitored by LC-MS and quantitatively studied by HPLC. The retention time and relative peak area for the prodrug and the parent model peptide were quantified using Peak Simple Chromatography software.
The flow rate was 1 ml/min.
The concentrations of the prodrugs and the model parent peptide were determined by their respective peak areas, ‘a’ and ‘b’ for each of the different collection times (Table 1). […] The slope of this plot provides the rate constant 1′.

[2] = plasma; for Relative peak area (%), HPLC peak a: peak a molecular weight 702; for Relative peak area (%), HPLC peak b: peak b molecular weight 902

`C[C@@H](O)[C@H](NC(=O)CNC(=O)[C@H](CCCNC(=N)N)NC(=O)[C@H](CO)NC(=O)[C@H](Cc1c[nH]cn1)NC(=O)CN(C)C(=O)C(C)(C)N)C(=O)N[C@@H](Cc1ccccc1)C(N)=O` [Compound 24] showed a half-life at 1 mg/ml ([1]; buffer) of 9 min.
With `C[C@H](O)[C@@H](NC(=O)CNC(=O)[C@@H](CCCNC(=N)N)NC(=O)[C@H](NC(=O)[C@@H](Cc1c[nH]cn1)NC(=O)CN(C)C(=O)[C@@H](N)CCCCN)[C@H](C)O)C(=O)N[C@H](Cc1ccccc1)C(N)=O` [peptide B, Lys-Sar-dHdTdRGdTdF-NH2] (H-K[Sar][dH][dT][dR]G[dT][dF]-NH2) the “Relative peak area (%), HPLC peak a” value ([2]; 5 h) was 17.0%, the “Relative peak area (%), HPLC peak b” value ([2]; 5 h) was 83.0% and the “Relative peak area (%), HPLC peak a” value ([2]; 11 h) was 29.2%. The “Relative peak area (%), HPLC peak b” value ([2]; 11 h) was 70.8%, the “Relative peak area (%), HPLC peak a” value ([2]; 24 h) was 60.2% and the “Relative peak area (%), HPLC peak b” value ([2]; 24 h) was 39.8%. The “Relative peak area (%), HPLC peak a” value ([2]; 32 h) was 54.0%, the “Relative peak area (%), HPLC peak b” value ([2]; 32 h) was 46.0% and the “Relative peak area (%), HPLC peak a” value ([2]; 48 h) was 27.6%. For the same compound, the “Relative peak area (%), HPLC peak b” value ([2]; 48 h) was 72.4%.
In the case of `C[C@@H](O)[C@H](NC(=O)CNC(=O)[C@H](CCCNC(=N)N)NC(=O)[C@H](CO)NC(=O)[C@H](Cc1c[nH]cn1)NC(=O)CN(C)C(=O)[C@@H](N)CCCCN)C(=O)N[C@@H](Cc1ccccc1)C(N)=O` [peptide A, Lys-Sar-HSRGTF-NH2] (H-K[Sar]HSRGTF-NH2; N-terminus assumed), the “Relative peak area (%), HPLC peak a” value ([1]; 5 h) is reported as 26.5%, the “Relative peak area (%), HPLC peak b” value ([1]; 5 h) is reported as 73.5% and the “Relative peak area (%), HPLC peak a” value ([1]; 8 h) is reported as 28.9%. For the same compound, the “Relative peak area (%), HPLC peak b” value ([1]; 8 h) was 71.1%, the “Relative peak area (%), HPLC peak a” value ([1]; 24 h) was 28.8% and the “Relative peak area (%), HPLC peak b” value ([1]; 24 h) was 71.2%. The “Relative peak area (%), HPLC peak a” value ([1]; 31 h) was 77.7%, the “Relative peak area (%), HPLC peak b” value ([1]; 31 h) was 22.3% and the “Relative peak area (%), HPLC peak a” value ([1]; 47 h) was 90.0%. The “Relative peak area (%), HPLC peak b” value ([1]; 47 h) was 10.0%.
